According to PMC10259201, “Mercapto-pyrimidines are reversible covalent inhibitors of the papain-like protease (PLpro) and inhibit SARS-CoV-2 (SCoV-2) replication” (RSC Advances, 2023):
“And” between values parts separate entries of the source, which are not always exact repeats. Equal entries are not always repeated. “Also recorded” adds a separate entry of the source. Where two headings read alike, the source gives them in different places.

What was measured:
PLpro from SCoV-2 [1] = molecular target: PLpro from SCoV-2 (Severe acute respiratory syndrome coronavirus 2, UniProt P0DTD1); experiment: Fluorescent PLpro inhibition assay (RLRGG-AMC substrate), dose response; type: biochemical, SARS-CoV-2
SARS-CoV-2 USA-WA1/2020 = experiment: SCoV-2 USA-WA1/2020 antiviral assay with plaque forming readout in Vero E6 cells; type: cell-based
PLpro [2] = molecular target: T1, PLpro (Severe acute respiratory syndrome coronavirus 2, UniProt P0DTD1); experiment: Surface plasmon resonance with immobilized His-tagged PLpro; type: binding, SARS-CoV-2
SCoV2 PLpro = SCoV2 PLpro (Severe acute respiratory syndrome coronavirus 2, UniProt P0DTD1); experiment: Gel-based activity based protein profiling (IA-rhodamine / NHS-rhodamine); type: biochemical, SARS-CoV-2; details: pulse chase
Protocol: We performed activity-based profiling experiments to determine if compound 5 covalently reacted with the cysteines or lysines of PLpro.[36] Iodoacetamide-rhodamine was used as the probe for cysteine reactivity analysis and NHS-rhodamine was the probe for investigating lysine reactivity on PLpro. A traditional pulse chase experiment was performed with PLpro and the rhodamine dyes, where PLpro was first incubated with compound 5 and then incubated with iodoacetamide-rhodamine or NHS-rhodamine. After the dye incubation, PLpro was run on a protein gel and imaged via fluorescence. […] The other thiols in PLpro are either disulfides, which are unreactive to nucleophiles, or zinc chelated and have diminished nucleophilicity.
For gel-based ABPP experiments with PLpro, pure SCoV2 PLpro protein (0.1 μg per sample for IA-rhodamine and 0.05 μg for NHS-rhodamine) was pretreated with either DMSO vehicle or desired dosage of compound 5 at 37 °C for 1 hour in 25 μL PBS. […] Probe-labeled proteins were analyzed by in-gel rhodamine fluorescence using a ChemiDoc MP (Bio-Rad). Protein loading was assessed by Silver Staining.

SARS-CoV-2-NLuc = type: cell-based; details: data not shown
[3] = Cytotoxicity assay (resazurin); type: cell-based; details: African green monkey, Vero CCL-81 cells, Vero CCL-81, resazurin, read-out: cell viability
Vero CCL-81 cells = experiment: Cytotoxicity assay (resazurin); type: cell-based; details: 50 μM, Vero CCL-81, resazurin
PLpro [4] = molecular target: T1, PLpro; experiment: Jump dilution assay (reversibility of PLpro inhibition); type: biochemical, SARS-CoV-2
Protocol: To investigate if compound 5 constitutes a novel class of RCI, we performed a jump dilution assay with PLpro, compound 5 and beta-mercaptoethanol (BMe). PLpro and compound 5 were mixed and allowed to react, diluted 25-fold in the presence of 5 mM BMe[38,39] and the inhibition of PLpro was measured.
BMe is not a biological nucleophile, and we re-did the jump dilution assay in the presence of either 5 mM reduced glutathione (GSH) or 200 μM cysteine (their physiological concentrations)[40] to determine if the PLpro-compound 5 adduct would rapidly decompose in cells. […] In contrast, smaller thiols such as BMe and cysteine can apparently access the PLpro active site and can displace compound 5. […] In addition, the mercaptopryimidine ring can function as a size selective filter for thiols and this unique feature should allow it to find numerous applications in drug discovery.
PLpro was mixed with compound 5 at the 10-fold higher concentration of IC50 (10 × IC50) and allowed to form protein-inhibitor complex at saturating conditions at room temperature. The complex was then rapidly diluted in a buffer supplemented with 5 mM reduced glutathione, 5 mM beta-mercaptoethanol (BMe), 200 μM cysteine to bring the compound's concentration of 1/10 × IC50. After 5 minutes of dilution, the substrate was added and incubated for 30 minutes. The fluorescent intensities were read at the excitation wavelength of 360 nm and emission wavelength of 460 nm.

PLpro [5] = molecular target: T1, PLpro; experiment: Time dependent PLpro inhibition assay (pre-incubation); type: biochemical, SARS-CoV-2
From the text: Compound 5 contains a mercaptopyrimidine fragment, which can potentially undergo addition–elimination reactions with nucleophiles. For example, Murugesan et al. recently identified a mercaptopyrimidine based inhibitor of tuberculosis cell growth, which reacted with glutathione under physiological conditions.[27,35] PLpro is a cysteine protease with a nucleophilic cysteine in its active site, which could potentially react with compound 5via an additional elimination reaction. We performed a time dependent PLpro inhibition assay with compound 5 to determine if pre-incubation time lowered its IC50. Pre-incubation time lowers the IC50 of covalent inhibitors because it gives more time for the protein to react with the inhibitor. In contrast, pre-incubation time frequently has no effect on the IC50 of non-covalent inhibitors because their koffs are generally on the timescale of second to minutes.
The PLpro protein (50 nM) was preincubated with different concentration of inhibitor (0, 1, 2.5, 5, 10 and 20 μM) for different time points (0, 5, 10, 20, 35, 95, 125, 185 minutes). The substrate (50 μM) was added and measured the fluorescence. The data was analyzed using Enzyme – inhibition, GraphPad Prism.

SCoV-2 [6] = test system: SCoV-2; parameters: method as in PMID 33531496, PMID 32895623, PMID 33473130, PMID 34341772, PMID 32845033; details: oral delivery; cited from earlier work
SCoV-2 [7] = test system: SCoV-2; parameters: method as in PMID 33531496, PMID 32895623, PMID 33473130, PMID 34341772, PMID 32845033; details: cited from earlier work
PLpro from SCoV-2 [8] = test system: PLpro from SCoV-2; parameters: method as in PMID 33531496, PMID 32895623, PMID 33473130, PMID 34341772, PMID 32845033; details: cited from earlier work
SCoV PLpro = test system: SCoV PLpro; parameters: method as in PMID 18852458; details: cited from earlier work
[9] = IC50 (PLpro inhibition, HTS hits), HTS hit dose response, 10 point 1:2 dilution from 40 μM, 50 nM PLpro, 50 μM RLRGG-AMC
[10] = IC50 (PLpro inhibition, compound 5 and derivatives), hit exploration / SAR, compounds purchased from ChemDiv

Structure (SMILES): Cc1nn(-c2ccccc2)c(OC(=O)C(C)C)c1Sc1ccccc1 [Compound 1]
- IC50 (PLpro from SCoV-2 [1]; [9]): 0.815 µM

Structure (SMILES): CNC(=O)c1sc(=S)n(-c2cc(Cl)ccc2OC)c1N [Compound 2]
- IC50 (PLpro from SCoV-2 [1]; [9]): 0.985 µM

Structure (SMILES): Cc1nnc(Sc2nc(Sc3nnc(C)s3)nc(Sc3nnc(C)s3)n2)s1 [Compound 4]
- IC50 (PLpro from SCoV-2 [1]; [9]): 1.42 µM

Structure (SMILES): CCSc1nc2sc3c(c2c(=O)n1CC)CCc1ccccc1-3 [Compound 5B]
- IC50 (PLpro from SCoV-2 [1]; hit exploration / SAR, compounds purchased from ChemDiv, read-out: IC50 (PLpro inhibition, compound 5 and derivatives)): 5 µM and 4.99 µM
- antiviral activity in Vero E6 cells by plaque assay (SARS-CoV-2 USA-WA1/2020): did not have any antiviral activity; also recorded: do not exhibit antiviral activity

Structure (SMILES): C=CCSc1nc2sc3c(c2c(=O)n1CC)CCc1ccccc1-3 [Compound 5E]
- IC50 (PLpro from SCoV-2 [1]; [10]): 0.9 µM and 0.853 µM and 0.85 µM
- IC50 relative to compound 5 (times lower / fold higher potency) (PLpro from SCoV-2 [1]; compared with compound 5): approximately 5 fold
- Kd (PLpro [2]): 8.3 µM
- antiviral activity in Vero E6 cells by plaque assay (SARS-CoV-2 USA-WA1/2020): did not have any antiviral activity; also recorded: do not exhibit antiviral activity

Structure (SMILES): CCCSc1nc2sc3c(c2c(=O)n1CC)CCc1ccccc1-3 [Compound 5]
- IC50 (PLpro from SCoV-2 [1]; [9]): 1.59 µM
- IC50 (PLpro from SCoV-2 [1]; [10]): 5.1 µM and 5.19 µM and 5 µM
- cysteine reactivity: blocking of iodoacetamide-rhodamine labelling of PLpro (SCoV2 PLpro; IA-rhodamine probe): prevents PLpro from reacting with iodo-acetamide; also recorded: able to prevent PLpro from reacting with iodo-acetamide
- lysine reactivity: blocking of NHS-rhodamine labelling of PLpro (SCoV2 PLpro; NHS-rhodamine probe): unable to prevent PLpro from reacting with NHS-rhodamine
- Kd (PLpro [2]; SPR, His-tagged PLpro on Ni-NTA chip, read-out: binding constant KD): 21 µM
- reduction in infectious virus levels (plaque forming assay) (SARS-CoV-2 USA-WA1/2020; 10 μM): 3 fold
- reduction in infectious virus levels (plaque forming assay) (SARS-CoV-2 USA-WA1/2020; 20 μM): 22 fold
- reduction of NLuc levels of infected cells (SARS-CoV-2-NLuc; 10 μM): 3 fold
- reduction of NLuc levels of infected cells (SARS-CoV-2-NLuc; 20 μM): 7 fold
- viability at 72 h, 1 µM ([3]; 1 μM): > 85%
- viability at 72 h, 10 µM ([3]; 10 μM): > 85%
- viability at 72 h, 25 µM ([3]; 25 μM): > 85%
- toxicity (Vero CCL-81 cells): significant toxicity
- recovery of PLpro activity after dilution (PLpro [4]; 200 μM cysteine): can regenerate active PLpro; also recorded: recovered the activity of PLpro
- recovery of PLpro activity after dilution (PLpro [4]; 5 mM reduced glutathione (GSH)): cannot; also recorded: did not
- recovery of PLpro activity after dilution (PLpro [4]; diluted 25-fold with 5 mM BMe, 5 minutes): 90%
- recovery of PLpro activity after dilution (PLpro [4]; dilution in PBS): still inhibits PLpro after dilution with PBS
- recovery of PLpro activity after dilution (PLpro [4]; dilution in PBS, listed as compound 5): no effect on the activity of PLpro
- IC50 (PLpro [5]; 3 hour pre-incubation with PLpro, read-out: IC50 of PLpro inhibition after 3 hour pre-incubation): 0.9 µM
- decrease in IC50 after pre-incubation (PLpro [5]; 3 hours pre-incubation vs none): 10 fold
- IC50 (PLpro [5]; no pre-incubation, read-out: IC50 of PLpro inhibition, no pre-incubation): 9 µM

Structure (SMILES): CCn1c(N)c(C(=O)Nc2ccccc2OC)sc1=S [Compound 6]
- IC50 (PLpro from SCoV-2 [1]; [9]): 2.73 µM

Structure (SMILES): CCOC(=O)c1sc(=S)n(-c2cc(OC)ccc2OC)c1N [Compound 7]
- IC50 (PLpro from SCoV-2 [1]; [9]): 3.87 µM

Structure (SMILES): CN(C)C(S)=Nc1nc2ccccc2s1 [Compound 8]
- IC50 (PLpro from SCoV-2 [1]; [9]): 4.76 µM

Structure (SMILES): COC(=O)c1ccc([C@@H]2Nc3c(Cl)cccc3[C@@H]3C=CC[C@@H]32)cc1 [Compound 9]
- IC50 (PLpro from SCoV-2 [1]; [9]): 7.94 µM

Structure (SMILES): Cc1ccc(-n2c(N)c(C(=O)N3CCCCC3)sc2=S)cc1 [Compound 10]
- IC50 (PLpro from SCoV-2 [1]; [9]): 8.33 µM

Structure (SMILES): Cc1ccc(N)cc1C(=O)N[C@H](C)c1cccc2ccccc12 [GRL0617]
- antiviral activity against SCoV-2 in mice (SCoV-2 [6]): moderate antiviral activity
- IC50 (viral replication in cells) (SCoV-2 [7]): micromolar range
- IC50 (PLpro from SCoV-2) (PLpro from SCoV-2 [8]): micromolar range
- IC50 (SCoV PLpro) (SCoV PLpro): low micromolar range

Structure (SMILES): CCC(CC)COC(=O)[C@H](C)N[P@](=O)(OC[C@H]1O[C@@](C#N)(c2ccc3c(N)ncnn23)[C@H](O)[C@@H]1O)Oc1ccccc1 [Remdesivir, reference compound]
- antiviral activity, positive control in plaque forming assay (SARS-CoV-2 USA-WA1/2020; 100 μM): potently inhibited the virus
